Test results as given in patent publication US10221197B2, “Phosphatidylinositol 3-kinase inhibitors” (Gilead Sciences, Inc., priority 2014, dated 2019).
Where a name gives a salt, the structure may show the parent alone.

How the values were obtained:
Assay type in all cases: biochemical
PI3Kβ = PI3Kβ (Homo sapiens (Human), UniProt P42338); assay: TR-FRET enzymatic assay of PI3K isoforms (PI3Kβ); settings: TR-FRET, 2×Km ATP, 2 μM PIP2, incubated for 30 minutes at 25° C.; read-out: β IC50
Method: (§1) The compounds of formula (I) were characterized for their enzymatic activity against the PI3K isoforms. Certain compounds of the present application, including certain compounds of formula (II) and (III) were also characterized for their enzymatic activity against PI3K isoforms. The activities were measured using a time-resolved fluorescence resonance energy transfer (TR-FRET) assay.

PI3Kδ = PI3Kδ (Homo sapiens (Human), UniProt O00329); assay: TR-FRET enzymatic assay of PI3K isoforms (PI3Kδ); settings: 2×Km ATP, 2 μM PIP2, incubated for 30 minutes at 25° C., read-out: δ IC50
Method: as §1

PI3Kγ = PI3Kγ (Homo sapiens (Human), UniProt P48736); assay: TR-FRET enzymatic assay of PI3K isoforms (PI3Kγ); settings: TR-FRET, 2×Km ATP, 2 μM PIP2, PI3Kγ at 2 nM, incubated for 30 minutes at 25° C.; read-out: γ IC50
Method: as §1

PI3Kγ, sequence (P48736 whole entry, canonical isoform): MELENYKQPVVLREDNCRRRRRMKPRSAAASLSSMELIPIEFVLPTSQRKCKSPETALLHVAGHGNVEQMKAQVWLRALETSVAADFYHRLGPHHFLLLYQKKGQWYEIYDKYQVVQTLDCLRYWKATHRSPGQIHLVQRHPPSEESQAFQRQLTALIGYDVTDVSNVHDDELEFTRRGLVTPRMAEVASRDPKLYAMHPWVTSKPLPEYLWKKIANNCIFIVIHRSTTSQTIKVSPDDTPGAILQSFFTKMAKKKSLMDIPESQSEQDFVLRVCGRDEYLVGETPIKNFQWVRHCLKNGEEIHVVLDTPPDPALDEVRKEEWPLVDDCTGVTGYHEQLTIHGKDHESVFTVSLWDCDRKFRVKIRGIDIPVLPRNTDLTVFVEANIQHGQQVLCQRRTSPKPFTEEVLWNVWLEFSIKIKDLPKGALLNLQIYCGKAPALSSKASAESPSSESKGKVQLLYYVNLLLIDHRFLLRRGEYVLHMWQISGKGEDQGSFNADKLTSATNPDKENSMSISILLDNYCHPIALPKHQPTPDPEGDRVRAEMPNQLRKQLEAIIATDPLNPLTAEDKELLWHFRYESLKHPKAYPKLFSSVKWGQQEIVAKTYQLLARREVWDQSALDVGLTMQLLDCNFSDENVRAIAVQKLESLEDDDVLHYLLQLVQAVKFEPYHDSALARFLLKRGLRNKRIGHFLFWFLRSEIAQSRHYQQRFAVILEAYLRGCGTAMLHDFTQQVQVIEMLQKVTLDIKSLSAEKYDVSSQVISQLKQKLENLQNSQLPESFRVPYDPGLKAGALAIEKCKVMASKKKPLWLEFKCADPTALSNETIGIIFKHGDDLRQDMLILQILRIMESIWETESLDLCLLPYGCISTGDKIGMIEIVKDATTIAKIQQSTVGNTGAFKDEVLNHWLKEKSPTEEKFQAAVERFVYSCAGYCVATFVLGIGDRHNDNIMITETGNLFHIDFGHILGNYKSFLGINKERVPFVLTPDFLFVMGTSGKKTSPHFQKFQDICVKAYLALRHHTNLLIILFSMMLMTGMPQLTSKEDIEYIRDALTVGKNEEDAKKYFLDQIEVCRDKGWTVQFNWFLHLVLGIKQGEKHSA
PI3Kγ, sequence (Q8WYR1 whole entry partner, canonical isoform): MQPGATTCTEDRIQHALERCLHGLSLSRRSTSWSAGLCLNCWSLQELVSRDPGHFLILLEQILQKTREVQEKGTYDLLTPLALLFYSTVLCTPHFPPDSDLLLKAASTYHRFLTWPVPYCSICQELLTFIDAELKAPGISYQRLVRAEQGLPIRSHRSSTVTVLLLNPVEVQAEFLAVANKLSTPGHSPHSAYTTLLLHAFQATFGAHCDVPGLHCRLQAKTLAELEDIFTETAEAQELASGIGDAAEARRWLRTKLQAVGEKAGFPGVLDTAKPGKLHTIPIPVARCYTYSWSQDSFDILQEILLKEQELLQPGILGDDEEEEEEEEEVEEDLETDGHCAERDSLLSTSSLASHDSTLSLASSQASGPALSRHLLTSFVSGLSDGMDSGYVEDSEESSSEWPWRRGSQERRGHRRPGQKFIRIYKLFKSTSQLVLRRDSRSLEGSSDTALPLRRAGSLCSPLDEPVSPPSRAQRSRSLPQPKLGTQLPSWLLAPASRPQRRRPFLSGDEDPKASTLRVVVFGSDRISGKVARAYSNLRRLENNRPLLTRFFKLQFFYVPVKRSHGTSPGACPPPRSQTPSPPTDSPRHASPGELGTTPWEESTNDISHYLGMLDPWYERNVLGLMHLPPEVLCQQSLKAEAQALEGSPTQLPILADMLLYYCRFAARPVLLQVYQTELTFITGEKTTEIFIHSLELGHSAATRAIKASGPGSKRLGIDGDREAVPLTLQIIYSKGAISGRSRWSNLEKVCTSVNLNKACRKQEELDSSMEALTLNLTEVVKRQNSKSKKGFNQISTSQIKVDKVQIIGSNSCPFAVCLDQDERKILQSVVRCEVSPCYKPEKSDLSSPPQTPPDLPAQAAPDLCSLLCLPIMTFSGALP
PI3Kβ, sequence (P42338 whole entry, canonical isoform): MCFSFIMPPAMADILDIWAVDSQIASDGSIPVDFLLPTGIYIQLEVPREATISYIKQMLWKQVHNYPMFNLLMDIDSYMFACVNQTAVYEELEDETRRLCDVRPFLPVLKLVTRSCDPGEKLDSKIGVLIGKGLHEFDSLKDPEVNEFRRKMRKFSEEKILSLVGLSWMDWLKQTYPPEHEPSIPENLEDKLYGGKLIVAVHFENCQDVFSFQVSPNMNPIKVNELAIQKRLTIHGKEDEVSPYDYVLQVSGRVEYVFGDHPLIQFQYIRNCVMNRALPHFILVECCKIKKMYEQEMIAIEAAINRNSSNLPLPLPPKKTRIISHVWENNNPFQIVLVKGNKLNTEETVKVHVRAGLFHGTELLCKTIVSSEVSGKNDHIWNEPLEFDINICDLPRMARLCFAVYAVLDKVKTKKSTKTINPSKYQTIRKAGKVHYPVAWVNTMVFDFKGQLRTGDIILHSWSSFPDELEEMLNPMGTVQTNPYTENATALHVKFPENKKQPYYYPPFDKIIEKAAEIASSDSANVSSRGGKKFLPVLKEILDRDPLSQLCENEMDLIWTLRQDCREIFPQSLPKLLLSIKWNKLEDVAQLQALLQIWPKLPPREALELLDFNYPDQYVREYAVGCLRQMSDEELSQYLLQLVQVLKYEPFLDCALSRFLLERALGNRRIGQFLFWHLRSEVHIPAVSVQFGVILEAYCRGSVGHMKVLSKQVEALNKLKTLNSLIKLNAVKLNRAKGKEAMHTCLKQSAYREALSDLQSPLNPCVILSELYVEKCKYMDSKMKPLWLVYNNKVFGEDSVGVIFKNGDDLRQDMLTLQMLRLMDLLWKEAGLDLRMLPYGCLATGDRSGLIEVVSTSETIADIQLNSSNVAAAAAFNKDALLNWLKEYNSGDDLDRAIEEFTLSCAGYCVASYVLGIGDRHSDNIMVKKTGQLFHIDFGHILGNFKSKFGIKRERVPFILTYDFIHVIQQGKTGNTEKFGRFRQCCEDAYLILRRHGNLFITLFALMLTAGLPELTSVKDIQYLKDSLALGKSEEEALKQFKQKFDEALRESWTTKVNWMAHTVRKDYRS
PI3Kβ, sequence (P27986 whole entry partner, canonical isoform): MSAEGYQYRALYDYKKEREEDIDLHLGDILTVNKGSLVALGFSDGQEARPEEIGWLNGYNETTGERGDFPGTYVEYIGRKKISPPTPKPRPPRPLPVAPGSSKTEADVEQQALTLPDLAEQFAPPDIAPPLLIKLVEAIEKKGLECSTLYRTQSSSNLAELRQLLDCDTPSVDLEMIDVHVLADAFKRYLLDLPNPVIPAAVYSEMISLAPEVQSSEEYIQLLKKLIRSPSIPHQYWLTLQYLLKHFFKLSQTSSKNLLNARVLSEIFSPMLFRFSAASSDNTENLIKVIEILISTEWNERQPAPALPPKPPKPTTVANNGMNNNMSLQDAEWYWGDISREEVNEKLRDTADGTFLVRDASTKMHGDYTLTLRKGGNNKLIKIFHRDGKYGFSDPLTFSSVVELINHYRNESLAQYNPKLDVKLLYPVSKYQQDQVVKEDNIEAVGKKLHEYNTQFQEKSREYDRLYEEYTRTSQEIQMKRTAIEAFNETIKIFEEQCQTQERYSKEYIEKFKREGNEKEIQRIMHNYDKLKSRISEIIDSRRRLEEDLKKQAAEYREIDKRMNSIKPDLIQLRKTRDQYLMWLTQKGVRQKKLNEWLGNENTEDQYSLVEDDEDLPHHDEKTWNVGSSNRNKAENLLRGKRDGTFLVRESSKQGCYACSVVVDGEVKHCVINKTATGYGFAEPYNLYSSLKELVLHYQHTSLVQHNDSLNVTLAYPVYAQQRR
PI3Kδ, sequence (O00329 whole entry, canonical isoform): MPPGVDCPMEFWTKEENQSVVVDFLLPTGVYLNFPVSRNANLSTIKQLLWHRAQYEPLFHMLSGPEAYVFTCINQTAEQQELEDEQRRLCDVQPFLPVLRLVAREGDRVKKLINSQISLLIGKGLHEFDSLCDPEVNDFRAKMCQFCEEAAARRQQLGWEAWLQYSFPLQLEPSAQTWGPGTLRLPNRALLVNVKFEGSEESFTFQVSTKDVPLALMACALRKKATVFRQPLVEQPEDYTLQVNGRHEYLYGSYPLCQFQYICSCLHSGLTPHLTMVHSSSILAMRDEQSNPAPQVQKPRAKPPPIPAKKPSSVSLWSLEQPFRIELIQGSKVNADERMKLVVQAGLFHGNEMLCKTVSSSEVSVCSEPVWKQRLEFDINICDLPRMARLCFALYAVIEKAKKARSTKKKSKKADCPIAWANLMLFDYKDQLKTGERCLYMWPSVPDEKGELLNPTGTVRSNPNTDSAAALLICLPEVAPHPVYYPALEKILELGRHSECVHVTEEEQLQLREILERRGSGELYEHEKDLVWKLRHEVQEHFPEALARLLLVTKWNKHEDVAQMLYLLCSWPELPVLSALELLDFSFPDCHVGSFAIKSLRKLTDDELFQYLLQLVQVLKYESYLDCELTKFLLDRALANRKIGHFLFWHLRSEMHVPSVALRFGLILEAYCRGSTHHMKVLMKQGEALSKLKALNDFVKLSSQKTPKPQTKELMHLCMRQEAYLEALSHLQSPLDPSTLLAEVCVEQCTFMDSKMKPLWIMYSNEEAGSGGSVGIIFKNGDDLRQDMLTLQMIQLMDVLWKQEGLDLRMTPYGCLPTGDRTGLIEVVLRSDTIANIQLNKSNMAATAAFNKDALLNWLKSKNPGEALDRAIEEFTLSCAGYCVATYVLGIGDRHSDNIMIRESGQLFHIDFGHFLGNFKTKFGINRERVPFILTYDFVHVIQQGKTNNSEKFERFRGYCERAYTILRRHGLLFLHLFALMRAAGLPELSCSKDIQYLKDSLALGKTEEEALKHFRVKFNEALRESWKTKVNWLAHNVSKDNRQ
PI3Kδ, sequence (P27986 whole entry partner, canonical isoform): as the sequence (P27986 whole entry partner, canonical isoform) above

Compound	IC50 (PI3Kβ)	IC50 (PI3Kδ)	IC50 (PI3Kγ)
CCNC(=O)Nc1cccc(-n2c([C@H](C)Nc3ncnc(N)c3C#N)nc3ccccc3c2=O)c1 [Compound 52, (S)-1-(3-(2-(1-((6-amino-5-cyanopyrimidin-4-yl)amino)ethyl)-4-oxoquinazolin-3(4H)-yl)phenyl)-3-ethylurea]	340 nM	39 nM	> 10000 nM
C[C@H](Nc1ncnc(N)c1C#N)c1nc2cccc(Cl)c2c(=O)n1-c1cccc(NC(=O)NCCN(C)C)c1 [Compound 116, (S)-1-(3-(2-(1-((6-amino-5-cyanopyrimidin-4-yl)amino)ethyl)-5-chloro-4-oxoquinazolin-3(4H)-yl)phenyl)-3-(2-(dimethylamino)ethyl)urea, trifluoroacetic acid salt]	2 nM	4 nM	> 10000 nM
CCC[C@H](Nc1nc(N)nc(N)c1C#N)c1nc2cccc(Cl)c2c(=O)n1-c1cccc(C(N)=O)c1 [Compound 22, (S)-3-(5-chloro-2-(1-((2,6-diamino-5-cyanopyrimidin-4-yl)amino)butyl)-4-oxoquinazolin-3(4H)-yl)benzamide]	7 nM	0.7 nM	300 nM
C[C@H](Nc1nc(N)nc(C(F)F)c1C#N)c1nc2c(F)ccc(Cl)c2c(=O)n1-c1cccc(C(N)=O)c1 [Compound 24, (S)-3-(2-(1-((2-amino-5-cyano-6-(difluoromethyl)pyrimidin-4-yl)amino)ethyl)-5-chloro-8-fluoro-4-oxoquinazolin-3(4H)-yl)benzamide]	25 nM	1 nM	660 nM
CCNC(=O)Nc1cccc(-n2c([C@H](C)Nc3ncnc(N)c3C#N)nc3cccc(OC)c3c2=O)c1 [Compound 56, (S)-1-(3-(2-(1-((6-amino-5-cyanopyrimidin-4-yl)amino)ethyl)-5-methoxy-4-oxoquinazolin-3(4H)-yl)phenyl)-3-ethylurea]	6600 nM	880 nM	> 10000 nM
CCNC(=O)Nc1cccc(-n2c([C@H](C)Nc3ncnc(N)c3C#N)nc3ccc(F)cc3c2=O)c1 [Compound 53, (S)-1-(3-(2-(1-((6-amino-5-cyanopyrimidin-4-yl)amino)ethyl)-6-fluoro-4-oxoquinazolin-3(4H)-yl)phenyl)-3-ethylurea]	550 nM	75 nM	> 10000 nM
C[C@H](Nc1ncnc(N)c1C#N)c1nc2cccc(Cl)c2c(=O)n1-c1cccc(NC(=O)Nc2cccnc2)c1 [Compound 119, (S)-1-(3-(2-(1-((6-amino-5-cyanopyrimidin-4-yl)amino)ethyl)-5-chloro-4-oxoquinazolin-3(4H)-yl)phenyl)-3-(pyridin-3-yl)urea, trifluoroacetic acid salt]	3 nM	5 nM	1400 nM
NC(=O)c1cccc(-n2c([C@@H](Nc3nc(N)nc(N)c3Cl)C3CC3)nc3c(Cl)ccc(Cl)c3c2=O)c1 [Compound 11, (S)-3-(5,8-dichloro-2-(cyclopropyl((2,6-diamino-5-chloropyrimidin-4-yl)amino)methyl)-4-oxoquinazolin-3(4H)-yl)benzamide]	37 nM	3 nM	8500 nM
C[C@H](Nc1nc(N)nc(C(F)F)c1C#N)c1nc2c(Cl)cc(F)cc2c(=O)n1-c1cccc(C(N)=O)c1 [Compound 26, (S)-3-(2-(1-((2-amino-5-cyano-6-(difluoromethyl)pyrimidin-4-yl)amino)ethyl)-8-chloro-6-fluoro-4-oxoquinazolin-3(4H)-yl)benzamide]	313 nM	12 nM	7200 nM
C[C@H](Nc1ncnc(N)c1C#N)c1nc2c(Cl)cccc2c(=O)n1-c1cccc(NC(=O)NCCCO)c1 [Compound 65, (S)-1-(3-(2-(1-((6-amino-5-cyanopyrimidin-4-yl)amino)ethyl)-8-chloro-4-oxoquinazolin-3(4H)-yl)phenyl)-3-(3-hydroxypropyl)urea]	220 nM	82 nM	> 10000 nM

Further lines, results first:

IC50 (PI3Kβ)	IC50 (PI3Kδ)	IC50 (PI3Kγ)	Compound
29 nM	16 nM	8600 nM	N#Cc1c(N)ncnc1N1CCC[C@H]1c1nc2cccc(Cl)c2c(=O)n1-c1cccc(NC(=O)NCC2OCCO2)c1 [Compound 82, (S)-1-((1,3-dioxolan-2-yl)methyl)-3-(3-(2-(1-(6-amino-5-cyanopyrimidin-4-yl)pyrrolidin-2-yl)-5-chloro-4-oxoquinazolin-3(4H)-yl)phenyl)urea]
37 nM	10 nM	3800 nM	C[C@H](Nc1ncnc(N)c1C#N)c1nc2cccc(Cl)c2c(=O)n1-c1cccc(NC(=O)Nc2nnn[nH]2)c1 [Compound 114, (S)-1-(3-(2-(1-((6-amino-5-cyanopyrimidin-4-yl)amino)ethyl)-5-chloro-4-oxoquinazolin-3(4H)-yl)phenyl)-3-(1H-tetrazol-5-yl)urea]
4 nM	6 nM	8300 nM	C[C@H](Nc1ncnc(N)c1C#N)c1nc2cccc(Cl)c2c(=O)n1-c1cccc(NC(=O)NCCO)c1 [Compound 117, (S)-1-(3-(2-(1-((6-amino-5-cyanopyrimidin-4-yl)amino)ethyl)-5-chloro-4-oxoquinazolin-3(4H)-yl)phenyl)-3-(2-hydroxyethyl)urea]
8 nM	5 nM	5800 nM	C[C@H](Nc1ncnc(N)c1C#N)c1nc2cccc(Cl)c2c(=O)n1-c1cccc(NC(=O)NCCF)c1 [Compound 127, (S)-1-(3-(2-(1-((6-amino-5-cyanopyrimidin-4-yl)amino)ethyl)-5-chloro-4-oxoquinazolin-3(4H)-yl)phenyl)-3-(2-fluoroethyl)urea]
14 nM	9 nM	3300 nM	C[C@H](Nc1ncnc(N)c1C#N)c1nc2cccc(Cl)c2c(=O)n1-c1cccc(NC(=O)NC(C)(C)C)c1 [Compound 124, (S)-1-(3-(2-(1-((6-amino-5-cyanopyrimidin-4-yl)amino)ethyl)-5-chloro-4-oxoquinazolin-3(4H)-yl)phenyl)-3-(tert-butyl)urea]
3 nM	24 nM	8500 nM	C[C@H](Nc1ncnc(N)c1C#N)c1nc2cccc(F)c2c(=O)n1-c1cccc(NC(=O)Nc2ccccc2Cl)c1 [Compound 108, (S)-1-(3-(2-(1-((6-amino-5-cyanopyrimidin-4-yl)amino)ethyl)-5-fluoro-4-oxoquinazolin-3(4H)-yl)phenyl)-3-(2-chlorophenyl)urea]
6 nM	26 nM	1600 nM	C[C@H](Nc1ncnc2[nH]cnc12)c1nc2cccc(Cl)c2c(=O)n1-c1cccc(NC(=O)Nc2ccncc2Cl)c1 [Compound 112, (S)-1-(3-(2-(1-((9H-purin-6-yl)amino)ethyl)-5-chloro-4-oxoquinazolin-3(4H)-yl)phenyl)-3-(3-chloropyridin-4-yl)urea]
71 nM	2 nM	680 nM	C[C@H](Nc1ncnc(N)c1C#N)c1nc2cccc(Cl)c2c(=O)n1-c1cccc(NC(=O)NS(=O)(=O)C2CCCC2)c1 [Compound 79, (S)—N-((3-(2-(1-((6-amino-5-cyanopyrimidin-4-yl)amino)ethyl)-5-chloro-4-oxoquinazolin-3(4H)-yl)phenyl)carbamoyl)cyclopentanesulfonamide]
13 nM	9 nM	3300 nM	CCNC(=O)Nc1cccc(-n2c([C@@H]3CCCN3c3ncnc(N)c3C#N)nc3cccc(Cl)c3c2=O)c1 [Compound 83, (S)-1-(3-(2-(1-(6-amino-5-cyanopyrimidin-4-yl)pyrrolidin-2-yl)-5-chloro-4-oxoquinazolin-3(4H)-yl)phenyl)-3-ethylurea]
11 nM	2 nM	8200 nM	NC(=O)c1cncc(-n2c([C@@H](Nc3nc(N)nc(N)c3Cl)C3CC3)nc3cccc(Cl)c3c2=O)c1 [Compound 163, (S)-5-(5-chloro-2-(cyclopropyl((2,6-diamino-5-chloropyrimidin-4-yl)amino)methyl)-4-oxoquinazolin-3(4H)-yl)nicotinamide]
41 nM	2 nM	930 nM	CC(Oc1ncnc2scnc12)c1nc2cccc(Cl)c2c(=O)n1-c1cccc(NC(=O)Nc2ccccc2Cl)c1 (stereo not drawn) [Compound 156, 1-(3-(5-chloro-4-oxo-2-(1-(thiazolo[5,4-d]pyrimidin-7-yloxy)ethyl)quinazolin-3(4H)-yl)phenyl)-3-(2-chlorophenyl)urea]
3 nM	8 nM	1000 nM	C[C@H](Nc1ncnc(N)c1C#N)c1nc2cccc(Cl)c2c(=O)n1-c1cccc(NC(=O)Nc2ccccc2)c1 [Compound 118, (S)-1-(3-(2-(1-((6-amino-5-cyanopyrimidin-4-yl)amino)ethyl)-5-chloro-4-oxoquinazolin-3(4H)-yl)phenyl)-3-phenylurea]
2 nM	1 nM	420 nM	N#Cc1c(N)nc(N)nc1N[C@H](c1nc2cccc(Cl)c2c(=O)n1-c1cncc(C(N)=O)c1)C1CC1 [Compound 164, (S)-5-(5-chloro-2-(cyclopropyl((2,6-diamino-5-cyanopyrimidin-4-yl)amino)methyl)-4-oxoquinazolin-3(4H)-yl)nicotinamide]
12 nM	6 nM	7100 nM	C[C@H](Nc1ncnc(N)c1C#N)c1nc2cccc(Cl)c2c(=O)n1-c1cccc(NC(=O)NCCC(C)(C)O)c1 [Compound 142, (S)-1-(3-(2-(1-((6-amino-5-cyanopyrimidin-4-yl)amino)ethyl)-5-chloro-4-oxoquinazolin-3(4H)-yl)phenyl)-3-(3-hydroxy-3-methylbutyl)urea]
